Results taken from publication PMC6581936, “Impact of Intracellular Concentrations on Metabolic Drug-Drug Interaction Studies” (The AAPS Journal, 2019).
Values joined by “and” are separate entries in the source; they are usually repeats but may differ in a detail not shown here. Equal values may be shown once. Read-outs that look alike come from different tables or passages of the source.

Assays:
[1] = Fraction unbound in the cell (fu,cell), homogenization method/equilibrium dialysis; format: in vitro ADME, human; conditions: HH homogenate; for fraction unbound at 4 h, 0.5 μM / fraction unbound at 0.5 μM: human, human hepatocyte cell homogenate
[2] = Intracellular unbound drug accumulation ratio (Kpuu) in suspended HH; format: in vitro ADME, human; conditions: for Kpuu / Kp uu: suspended HH; for Kpuu: Kp x fu,cell, reference compounds; for Kp uu: human, suspended human hepatocytes
Protocol: Kpuu was determined as previously described ([7],[18]) using Eq. (1):
1 Kpuu=Kp∙fu,cell/fu,medium where Kp is the steady-state cellular uptake, and fu,cell the fraction of unbound compound in the cell, determined as described below. The fraction unbound of the compound in the medium (fu,medium) was equal to 1 as no serum proteins or other drug binding components were added to the incubation media.

CYP3A4 [3] = system: CYP3A4; design: method as in earlier work; conditions: RH; MDZ/1'-OH; ref [2] Brown et al., Drug Metab Dispos 2010; read-out: Ki (Ki,app); cited from earlier work
[4] = Fraction unbound to microsomes (fu,mic), equilibrium dialysis, HLM 0.2 mg/mL; conditions: both, human
[5] = Kpuu in rat hepatocytes derived from literature Kp; format: in vitro ADME; conditions: literature rat Kp x experimental (human) fu,cell
CYP3A4 [6] = conditions: read-out: Ki (Ki,app); RLM; MDZ/1'-OH; ref [2] Brown et al., Drug Metab Dispos 2010; cited from earlier work
[7] = Intracellular unbound drug accumulation ratio (Kpuu) in suspended HH; format: in vitro ADME; conditions: human, human hepatocytes, pH partitioning theory, read-out: calculated cytosolic Kpuu (or Fcyto)
[8] = Kp and mass balance in HH in presence and absence of CYP inhibitor ABT; format: in vitro ADME, human; conditions: for mass balance: hepatocyte experiments, without ABT
Protocol: S 4 Kp in presence of metabolic inhibitor ABT
A batch of HH derived from a single donor and a pooled batch were each used to measure Kp at 45
minutes in presence and absence of the CYP inhibitor ABT.[1]
Time curves over 45 minutes were established in plated HH. […]

[9] = Steady-state cellular uptake (Kp) in suspended HH; format: in vitro ADME; conditions: human, suspended human hepatocytes; for Kp at 5 min, 0.5 μM: RO compounds, parameters matched to the IC50 assay
Protocol: The Kp in suspended HH was measured similarly to previous reports with some modifications ([7],[18]). Briefly, cells were rinsed twice with […] 10 mM HEPES. One hundred microliters of cell suspension (5 × 10^6 cells/mL) was added to a conical 96-well plate, and 100 μL of 1 μM drug solutions in Hank’s buffered salt solution (HBSS) buffered with 10 mM HEPES was added (resulting in a 0.5 μM final concentration). All incubations were performed in triplicates on up to three independent occasions. Full-time curves were established at 1, 3, 7.5, 15, 30, and 45 min to determine Kp at equilibrium. For single time point measurements, the incubation time was matched to the CYP inhibition assays. A sample of the medium was removed after centrifugation in a pre-cooled centrifuge at 4°C (100×g, 5 min), and ten-fold diluted with a mixture of acetonitrile and water (60:40) containing the internal standard for determination of Cmedium. The remaining supernatant was removed by aspiration and cells were washed twice with ice-cold buffer. The intracellular compound was extracted using the acetonitrile to water to internal standard mixture for determination of the amount of drug in the cells (Acell). Protein content (Pcell) was quantified using the BCA assay in representative wells to establish the cellular volume (Vcell), assuming 6.5 μL/mg protein ([23]). Finally, Kp was calculated using Eq. (2)2 Kp=Acell/Vcell∙Pcell/Cmedium

[10] = design: method as in Brown et al., Drug Metab Dispos 2010; conditions: rat liver microsomes; ref Brown et al., Drug Metab Dispos 2010; cited from earlier work
[11] = design: method as in Brown et al, DMD, 2010; conditions: rat hepatocytes; ref Brown et al, DMD, 2010; cited from earlier work
[12] = design: method as in Brown et al, DMD, 2010; conditions: rat; calculated from Kilford et al. (2008); ref Brown et al, DMD, 2010; cited from earlier work
Papp of RO compounds = format: in vitro ADME; conditions: not told, method not stated
Excerpt: Table II Properties of the RO Discovery Compound Series and Results in HLM and Suspended HH | column: Papp (× 10^−6 cm/s)

pKa of RO compounds = format: physicochemical; conditions: method not stated
Excerpt: Table II Properties of the RO Discovery Compound Series and Results in HLM and Suspended HH | column: pKa

CYP1A2 [13] = biological target: T1, CYP1A2 (Homo sapiens, UniProt P05177); experiment: CYP1A2 inhibition in suspended HH; format: cell-based; conditions: TCR/1'-OH, source [3] In house
Protocol: (§1) For HH, 50 μL of a suspension of cryopreserved HH (3 × 10^6 cells/mL) were added to a 96-well round bottom plate and pre-incubated for 20 min in Williams E medium (without FBS). Fifty microliters of a × 3 concentrated test compound-solution and 50 μL of × 3 concentrated substrate (diclofenac for CYP2C9, midazolam for CYP3A4 and tacrine for CYP1A2) were added and the plate was incubated on a shaker at 37°C, 5% CO2, and 900 rpm. Incubations were stopped after 5 min by transferring 100 μL of the suspension to a fresh plate and adding 100 μL of acetonitrile containing the internal standard and then analyzed as above.

CYP1A2 [14] = biological target: T1, CYP1A2; experiment: CYP1A2 inhibition in HLM; format: biochemical; conditions: average values from table S1; read-out: IC50,app HLM
CYP1A2 [15] = system: CYP1A2; design: method as in earlier work; conditions: RH; TPH/1,3-DMU; ref [2] Brown et al., Drug Metab Dispos 2010; read-out: Ki (Ki,app); cited from earlier work
CYP1A2 [16] = system: CYP1A2; design: method as in earlier work; conditions: RLM; TPH/1,3-DMU; ref [2] Brown et al., Drug Metab Dispos 2010; read-out: Ki (Ki,app); cited from earlier work
CYP2C9 = CYP2C9 inhibition assay in HLM and HH (diclofenac); format: biochemical, human; conditions: diclofenac as substrate
Protocol: After the addition of 20 μL of 10 mM NADPH, the plate was incubated for 5 min. The reaction was stopped by adding 200 μL of acetonitrile containing an internal standard. After centrifugation of 10 min at 6200×g, the concentration of the substrate in the samples was determined by LC-MS (Sciex API4000, see S6 for LC-MS parameters).
as §1

[17] = cited from earlier work
[18] = azole series (itraconazole 24 h dialysis)

T1 sequence (P05177 whole entry): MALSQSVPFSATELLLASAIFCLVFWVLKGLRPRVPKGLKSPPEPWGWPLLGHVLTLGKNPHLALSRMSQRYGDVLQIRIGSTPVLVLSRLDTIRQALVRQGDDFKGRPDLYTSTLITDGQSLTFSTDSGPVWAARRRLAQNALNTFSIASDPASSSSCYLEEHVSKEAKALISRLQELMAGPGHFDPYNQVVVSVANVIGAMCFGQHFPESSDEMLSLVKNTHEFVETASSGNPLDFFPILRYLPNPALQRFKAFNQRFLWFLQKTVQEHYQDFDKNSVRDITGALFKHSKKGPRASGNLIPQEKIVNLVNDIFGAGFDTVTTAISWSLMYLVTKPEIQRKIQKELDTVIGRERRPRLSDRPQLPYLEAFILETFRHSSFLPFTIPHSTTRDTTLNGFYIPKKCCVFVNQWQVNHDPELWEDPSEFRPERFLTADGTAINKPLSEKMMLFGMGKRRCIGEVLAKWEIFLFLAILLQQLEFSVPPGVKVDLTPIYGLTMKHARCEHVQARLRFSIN

Compound | fraction unbound at 4 h, 0.5 μM ([4]; human liver microsomes) | fraction unbound at 4 h, 0.5 μM ([1]; RO compounds) | Papp (Papp of RO compounds) [×10⁻⁶ cm/s] | pKa (pKa of RO compounds) | Kp uu ([2]; RO compounds) | Kp at 5 min, 0.5 μM [9] | further results
CC[C@H]1OC(=O)[C@H](C)[C@@H](O[C@H]2C[C@@](C)(OC)[C@@H](O)[C@H](C)O2)[C@H](C)[C@@H](O[C@@H]2O[C@H](C)C[C@H](N(C)C)[C@H]2O)[C@](C)(OC)C[C@@H](C)C(=O)[C@H](C)[C@@H](O)[C@]1(C)O [Clarithromycin] | […] | – | – | – | – | – | fraction unbound at 4 h, 0.5 μM ([1]; 0.5 μM, reference compounds): […]; Kpuu [2]: […]; Kpuu ([2]; listed as clarithromycin): […]; Ki (CYP3A4 [3]): […]; Kp uu [5]: 2.27 ± 0.28; Ki (CYP3A4 [6]): […]; Kp uu [7]: 1.3; mass balance ([8]; suspended HH): […]; Kp at 0.5 μM ([9]; 0.5 μM, reference compounds): 25.9 ± 2.1; fu,mic [10]: 0.81; Kp [11]: 22; fu,cell [12]: 0.86
Cc1cccc(S(=O)(=O)NC(=O)Nc2snc(C)c2Br)c1 [RO08] | 0.41 ± 0.09 | 0.009 ± 0.004 | 22 | 2.66 | 0.21 ± 0.05 | 22.2 ± 4.3 | –
CCn1cc(C(=O)O)c(=O)c2cc(F)c(N3CCNCC3)nc21 [Enoxacin] | 0.53 ± 0.13 | – | – | – | – | – | fraction unbound at 4 h, 0.5 μM ([1]; 0.5 μM, reference compounds): 1; IC50 (CYP1A2 [13]): 422 ± 93 µM; Kp uu [5]: 20; IC50 (CYP1A2 [14]): 2140 ± 370 µM; Ki (CYP1A2 [15]): 120 ± 65 µM; mass balance ([8]; suspended HH): ~ 100%; Kp at 0.5 μM ([9]; 0.5 μM, reference compounds): 7.4 ± 1.1; fu,mic [10]: 0.99; Ki (CYP1A2 [16]): 2800 ± 1200 µM; Kp [11]: 20; fu,cell [12]: 0.99
CC(=O)N1CCN(c2ccc(OCC3COC(Cn4ccnc4)(c4ccc(Cl)cc4Cl)O3)cc2)CC1 (stereo not shown) [Ketoconazole, reference compound] | – | – | – | – | – | – | fraction unbound at 0.5 μM [1, 18]: 0.004 ± 0.001; fraction unbound at 0.5 μM ([4]; microsomes): 0.32 ± 0.12
Cc1cccc2cc(S(=O)(=O)NC(=O)Nc3ncc(Br)s3)sc12 [RO02] | 0.36 ± 0.09 | 0.0013 ± 7e-05 | 2 | 3.14 | 0.0613 ± 0.0002 | 47.3 ± 1.1 | –
COc1cc(C)c(-c2sc(S(=O)(=O)NC(=O)Nc3ncc(Br)s3)cc2C)cn1 [RO07] | 0.84 ± 0.06 | 0.00392 ± 3e-05 | 4 | 3.17 | 0.16 ± 0.01 | 41.9 ± 4.8 | –
COCCc1sc(S(=O)(=O)NC(=O)Nc2snc(C)c2Br)cc1C [RO09] | 0.97 ± 0.41 | 0.0075 ± 0.0006 | 2 | 2.49 | 0.088 ± 0.003 | 11.7 ± 2 | difference of IC50,app between HH and HLM (CYP2C9): 12 fold
CC[C@@H]([C@H](C)O)n1ncn(-c2ccc(N3CCN(c4ccc(OC[C@@H]5CO[C@@](Cn6cncn6)(c6ccc(F)cc6F)C5)cc4)CC3)cc2)c1=O [Posaconazole, reference compound] | – | – | – | – | – | – | fraction unbound at 0.5 μM [1, 18]: 0.005 ± 0.003; Kp uu ([2]; azole series): 37.6 ± 12.8; fraction unbound at 0.5 μM ([4]; human liver microsomes): 0.21 ± 0.11; Kp at 0.5 μM ([9]; azole series): 6930 ± 1240
O=C(Nc1ncc(Br)s1)NS(=O)(=O)c1cc2cccc(Cl)c2s1 [RO05] | 0.23 ± 0.02 | 0.0021 ± 0.0003 | 2 | 2.76 | 0.039 ± 0.003 | 18.5 ± 4.4 | –
COCc1oc(S(=O)(=O)NC(=O)Nc2nc(C)c(Br)s2)cc1C [RO04] | 0.45 ± 0.11 | 0.02 ± 0.01 | 13 | 2.8 | 0.46 ± 0.65 | 27.6 ± 26.1 | difference of IC50,app between HH and HLM (CYP2C9): identical
Cn1c(S(=O)(=O)NC(=O)Nc2ncc(Br)s2)cc2ccccc21 [RO06] | 0.36 ± 0.11 | 0.0039 ± 0.0003 | 3 | 2.8 | 0.24 ± 0.1 | 61.6 ± 38.6 | –
CO[C@H]1/C=C/O[C@@]2(C)Oc3c(C)c(O)c4c(O)c(c(/C=N/N5CCN(C)CC5)c(O)c4c3C2=O)NC(=O)/C(C)=C\C=C\[C@H](C)[C@H](O)[C@@H](C)[C@@H](O)[C@@H](C)[C@H](OC(C)=O)[C@@H]1C [rifampicin] | – | – | – | – | – | – | empirical hepatic uptake scalar [17]: 16.9
Cc1cccc(S(=O)(=O)NC(=O)Nc2cc(Br)cc(N)n2)c1 [RO01] | 0.42 ± 0.06 | 0.0149 ± 0.0003 | 10 | 5.41 | 0.357 ± 0.003 | 24 ± 2.2 | difference of IC50,app between HH and HLM (CYP2C9): identical
COCc1oc(S(=O)(=O)NC(=O)Nc2ncc(Br)s2)cc1C [RO03] | 0.41 ± 0.03 | 0.017 ± 0.001 | 9 | 2.91 | 0.3 ± 0.08 | 17.9 ± 8.9 | difference of IC50,app between HH and HLM (CYP2C9): identical
CCC(C)n1ncn(-c2ccc(N3CCN(c4ccc(OCC5COC(Cn6cncn6)(c6ccc(Cl)cc6Cl)O5)cc4)CC3)cc2)c1=O (stereo not shown) [Itraconazole, reference compound] | – | – | – | – | – | – | fu,cell [1, 18]: 0.003 ± 0.002; Kp uu ([2]; azole series): 7.5 ± 6.3; fraction unbound at 0.5 μM ([4]; human liver microsomes): 0.21 ± 0.13; Kp at 0.5 μM ([9]; azole series): 2720 ± 1570
Cc1c(O)cccc1C(=O)N[C@@H](CSc1ccccc1)[C@H](O)CN1C[C@H]2CCCC[C@H]2C[C@H]1C(=O)NC(C)(C)C [Nelfinavir] | 0.04 ± 0.02 | – | – | – | – | – | fu,cell ([1]; 0.5 μM, reference compounds): 0.00025 ± 0.00005; fraction unbound at 4 h, 0.5 μM ([1]; 0.5 μM, reference compounds): 0.0002; Kpuu with wash buffers at 4 and 37°C, with and without albumin ([2]; 45 minutes, except 4°C without albumin vs 37°C containing albumin): did not differ; Ki (CYP3A4 [3]): […]; Ki (CYP3A4 [6]): […]; Kp in presence or absence of ABT ([8]; HH, 45 minutes): unaffected; change of mass balance upon addition of ABT ([8]; suspended HH, 45 minutes): approximately doubled; fu,mic [10]: 0.022; Kp [11]: 3352; fu,cell [12]: 0.035
